Laboratory results taken from patent US9896441B2 (Lycera Corporation, priority 2014, dated 2018).

How the values were obtained:
Gal4-RORγ-LBD = biological target: T1, Gal4-RORγ-LBD (Homo sapiens, UniProt P51449); experiment: Gal4-RORγ Luciferase Reporter Assay in HEK-293T Cells; assay type: cell-based; conditions: HEK-293 cells, luciferase reporter, in presence of ursolic acid; for Gal4-RORγ Assay Max Response: maximum response
T1 construct: expressed in transfected cells
T1 sequence (P51449 269-508 limits assumed): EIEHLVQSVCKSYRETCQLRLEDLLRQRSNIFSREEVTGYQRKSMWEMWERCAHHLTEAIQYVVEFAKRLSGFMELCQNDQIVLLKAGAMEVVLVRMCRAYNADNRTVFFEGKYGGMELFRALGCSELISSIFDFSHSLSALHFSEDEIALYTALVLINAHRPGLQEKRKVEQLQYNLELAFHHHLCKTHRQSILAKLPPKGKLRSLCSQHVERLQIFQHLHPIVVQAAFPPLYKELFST
Method in brief: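 HEK-293 cells were co-transfected with Gal4-RORγ-LBD and a Gal4-luciferase reporter, then exposed overnight at 37 °C to compounds with […] ursolic acid present (0.2% DMSO). Luminescence was read with One-Glo after 10 min at RT, untreated signal was set as 100, and Max Response was taken as the upper plateau of a 4-parameter logistic fit.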

RORγ-LBD = biological target: T2, RORγ-LBD (Homo sapiens, UniProt P51449); experiment: RORγ-Ligand Binding Domain (LBD) TR-FRET Assay; assay type: biochemical; conditions: RORγ-LBD TR-FRET assay; for TR-FRET Assay Max Response: maximum response;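 for TR-FRET Assay Max Response: 665/615 nm signal ratio set to 100 without ursolic acid or test compound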
T2 construct: made in house; host or cells: SF9 cells (baculovirus); used as diluted lysate
T2 sequence (P51449 269-508 limits assumed): T1 sequence (P51449 269-508 limits assumed)
Method in brief: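 This TR-FRET coactivator assay pairs baculovirus-expressed His-RORγ-LBD (~3 nM final) with biotin-SRC1 LXXLL peptide at 200 nM final in pH 7.0 Tris/KCl/EDTA/DTT/BSA buffer.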

Structure (SMILES)	EC50 (Gal4-RORγ-LBD)	EC50 (RORγ-LBD)	Gal4-RORγ Assay Max Response (Gal4-RORγ-LBD)	TR-FRET Assay Max Response (RORγ-LBD)
CC(=O)N[C@@H]1Cc2ccc(/C=C(\C)c3c(F)cccc3Cl)cc2N(S(=O)(=O)c2cccc(C(F)(F)F)c2)C1 [Example 165, (R,E)-N-(7-(2-(2-Chloro-6-fluorophenyl)prop-1-en-1-yl)-1-((3-(trifluoromethyl)phenyl)sulfonyl)-1,2,3,4-tetrahydroquinolin-3-yl)acetamide]	< 500 nM	< 500 nM	* (a value in the range of 30 to 90)	*** (a value in the range of greater than 150 to 200)
CC(=O)N[C@H]1Cc2ccc(/C=C(\C)c3c(F)cccc3Cl)cc2N(S(=O)(=O)c2cccc(C(F)(F)F)c2)C1 [Example 167, (S,E)-N-(7-(2-(2-chloro-6-fluorophenyl)prop-1-en-1-yl)-1-((3-(trifluoromethyl)phenyl)sulfonyl)-1,2,3,4-tetrahydroquinolin-3-yl)acetamide]	500 to 5000 nM	< 500 nM	** (a value in the range of greater than 90 to 150)	*** (a value in the range of greater than 150 to 200)
CC(C)(O[C@@H]1Cc2ccc(OCc3c(F)cccc3Cl)cc2N(S(=O)(=O)c2cccc(C(F)(F)F)c2)C1)C(=O)O [Example 172, (R)-2-((7-((2-Chloro-6-fluorobenzyl)oxy)-1-((3-(trifluoromethyl)phenyl)sulfonyl)-1,2,3,4-tetrahydroquinolin-3-yl)oxy)-2-methylpropanoic acid]	500 to 5000 nM	< 500 nM	** (a value in the range of greater than 90 to 150)	** (a value in the range of greater than 90 to 150)
COC(=O)CO[C@@H]1Cc2ccc(OCc3c(F)cccc3Cl)cc2N(S(=O)(=O)c2cccc(C(F)(F)F)c2)C1 [Example 173A]	< 500 nM	< 500 nM	–	–
CC(O[C@@H]1Cc2ccc(OCc3c(F)cccc3Cl)cc2N(S(=O)(=O)c2cccc(C(F)(F)F)c2)C1)C(=O)O (stereo partly drawn) [Example 173C, 2-(((R)-7-((2-chloro-6-fluorobenzyl)oxy)-1-((3-(trifluoromethyl)phenyl)sulfonyl)-1,2,3,4-tetrahydroquinolin-3-yl)oxy)propanoic acid]	< 500 nM	< 500 nM	** (a value in the range of greater than 90 to 150)	** (a value in the range of greater than 90 to 150)
COC(=O)CO[C@@H]1Cc2ccc(/C=C(\C)c3c(F)cccc3Cl)cc2N(S(=O)(=O)c2cccc(C(F)(F)F)c2)C1 [Example 173D, methyl (R,E)-2-((7-(2-(2-chloro-6-fluorophenyl)prop-1-en-1-yl)-1-((3-(trifluoromethyl)-phenyl)sulfonyl)-1,2,3,4-tetrahydroquinolin-3-yl)oxy)acetate]	< 500 nM	< 500 nM	** (a value in the range of greater than 90 to 150)	** (a value in the range of greater than 90 to 150)
C/C(=C\c1ccc2c(c1)N(S(=O)(=O)c1cccc(C(F)(F)F)c1)C[C@H](OCC(=O)O)C2)c1c(F)cccc1Cl [Example 173E, (R,E)-2-((7-(2-(2-chloro-6-fluorophenyl)prop-1-en-1-yl)-1-((3-(trifluoromethyl)-phenyl)sulfonyl)-1,2,3,4-tetrahydroquinolin-3-yl)oxy)acetic acid]	500 to 5000 nM	< 500 nM	** (a value in the range of greater than 90 to 150)	** (a value in the range of greater than 90 to 150)
C/C(=C\c1ccc2c(c1)N(S(=O)(=O)c1cccc(C(F)(F)F)c1)C[C@H](OC(C)(C)C(=O)O)C2)c1c(F)cccc1Cl [Example 173F, (R,E)-2-((7-(2-(2-chloro-6-fluorophenyl)prop-1-en-1-yl)-1-((3-(trifluoromethyl)phenyl)-sulfonyl)-1,2,3,4-tetrahydroquinolin-3-yl)oxy)-2-methylpropanoic acid]	< 500 nM	< 500 nM	** (a value in the range of greater than 90 to 150)	*** (a value in the range of greater than 150 to 200)
COC(=O)CCC1CC(S(=O)(=O)c2ccc(F)c(OC)c2)c2cc(OCc3c(F)cccc3Cl)ccc2O1 (stereo not drawn) [Example 178, Methyl 3-(6-((2-chloro-6-fluorobenzyl)oxy)-4-((4-fluoro-3-methoxyphenyl)sulfonyl)chroman-2-yl)propanoate]	500 to 5000 nM	< 500 nM	** (a value in the range of greater than 90 to 150)	** (a value in the range of greater than 90 to 150)
COc1cc(S(=O)(=O)C2CC(CCC(=O)O)Oc3ccc(OCc4c(F)cccc4Cl)cc32)ccc1F (stereo not drawn) [Example 179, 3-(6-((2-Chloro-6-fluorobenzyl)oxy)-4-((4-fluoro-3-methoxyphenyl)sulfonyl)chroman-2-yl)propanoic acid]	500 to 5000 nM	< 500 nM	*** (a value in the range of greater than 150 to 200)	** (a value in the range of greater than 90 to 150)

More lines, main results first:

EC50 (Gal4-RORγ-LBD)	EC50 (RORγ-LBD)	Structure (SMILES)	Gal4-RORγ Assay Max Response (Gal4-RORγ-LBD)	TR-FRET Assay Max Response (RORγ-LBD)
500 to 5000 nM	< 500 nM	C/C(=C\c1ccc2c(c1)N(S(=O)(=O)c1cccc(C(F)(F)F)c1)C[C@@H](N)C2)c1c(F)cccc1Cl [Example 166, (S,E)-7-(2-(2-Chloro-6-fluorophenyl)prop-1-en-1-yl)-1-((3-(trifluoromethyl)phenyl)sulfonyl)-1,2,3,4-tetrahydroquinolin-3-amine]	** (a value in the range of greater than 90 to 150)	*** (a value in the range of greater than 150 to 200)
500 to 5000 nM	< 500 nM	C/C(=C\c1ccc2c(c1)C(S(=O)(=O)c1cccc(C(F)(F)F)c1)CC(CN)O2)c1c(F)cccc1Cl (stereo not drawn) [Example 180, (E)-(6-(2-(2-Chloro-6-fluorophenyl)prop-1-en-1-yl)-4-((3-(trifluoromethyl)phenyl)sulfonyl)chroman-2-yl)methanamine]	* (a value in the range of 30 to 90)	*** (a value in the range of greater than 150 to 200)
< 500 nM	< 500 nM	CC(=O)NCC1CC(S(=O)(=O)c2cccc(C(F)(F)F)c2)c2cc(/C=C(\C)c3c(F)cccc3Cl)ccc2O1 (stereo not drawn) [Example 181, (E)-N-((6-(2-(2-Chloro-6-fluorophenyl)prop-1-en-1-yl)-4-((3-(trifluoromethyl)phenyl)sulfonyl)chroman-2-yl)methyl)acetamide]	** (a value in the range of greater than 90 to 150)	** (a value in the range of greater than 90 to 150)
< 500 nM	< 500 nM	C/C(=C\c1ccc2c(c1)C(S(=O)(=O)c1cccc(C(F)(F)F)c1)CC(CNC(=O)C(C)(C)O)O2)c1c(F)cccc1Cl (stereo not drawn) [Example 182, (E)-N-((6-(2-(2-Chloro-6-fluorophenyl)prop-1-en-1-yl)-4-((3-(trifluoromethyl)phenyl)sulfonyl)chroman-2-yl)methyl)-2-hydroxy-2-methylpropanamide]	** (a value in the range of greater than 90 to 150)	*** (a value in the range of greater than 150 to 200)
500 to 5000 nM	< 500 nM	C/C(=C\c1ccc2c(c1)C(S(=O)(=O)c1cccc(C(F)(F)F)c1)CC(CNC(=O)C1CC1)O2)c1c(F)cccc1Cl (stereo not drawn) [Example 183, (E)-N-((6-(2-(2-Chloro-6-fluorophenyl)prop-1-en-1-yl)-4-((3-(trifluoromethyl)phenyl)sulfonyl)chroman-2-yl)methyl)cyclopropanecarboxamide]	** (a value in the range of greater than 90 to 150)	*** (a value in the range of greater than 150 to 200)
< 500 nM	< 500 nM	C/C(=C\c1ccc2c(c1)C(S(=O)(=O)c1cccc(C(F)(F)F)c1)CC(CNS(C)(=O)=O)O2)c1c(F)cccc1Cl (stereo not drawn) [Example 184, (E)-N-((6-(2-(2-Chloro-6-fluorophenyl)prop-1-en-1-yl)-4-((3-(trifluoromethyl)phenyl)sulfonyl)chroman-2-yl)methyl)methanesulfonamide]	** (a value in the range of greater than 90 to 150)	*** (a value in the range of greater than 150 to 200)
< 500 nM	< 500 nM	COC(=O)CCC1CC(S(=O)(=O)c2cccc(C(F)(F)F)c2)c2cc(OCc3c(F)cccc3Cl)ccc2O1 (stereo not drawn) [Example 186B, methyl 3-(6-((2-chloro-6-fluorobenzyl)oxy)-4-((3-(trifluoromethyl)phenyl)sulfonyl)chroman-2-yl)propanoate]	** (a value in the range of greater than 90 to 150)	** (a value in the range of greater than 90 to 150)
